Laboratory results from patent publication US20250270159A1, “1-(CYCLOBUTANEMETHYLIDENE)-2, 4, 5-TRIMETHOXYBENZENE COMPOUND AND PREPARATION METHOD AND USE THEREOF” (CHENGDU XINRUI TAIKANG TECHNOLOGY CO., LTD., priority 2023, published 2025).
Marks after values point to notes of the source that are not given here.

Key:
GABA = GABA content in brain of TBI rats; type: in vivo, SD rats; details: 30 mg/kg ip, 7 d continuous administration, FIG. 4
Protocol: The experimental grouping and drug administration plan were as follows. • Sham operation group (Group P): saline was given with the same volume as in the CTMB group; • Model group (T group): a blank emulsion was given with the same volume as in the CTMB group; • Medium dose group (Group M): a dose of 30 mg/kg of CTMB emulsion injection was given.
The experimental grouping and drug administration plan were the same as the test 3. After 7 d of continuous administration to each group, the rats were deeply anesthetized, the heads were severed and the brains were removed, about 60-120 mg of hemispheric cortex on the blood side was taken out, 10 times volume of ice-cold centrifugation buffer used for biochemical assay was added, homogenized for 10 min under an ice bath, and then centrifuged for 30 min at 4° C. and 14000 rpm/min. The supernatants were taken to test the GLT-1 and GABA content according to the instructions of GLT-1 and GABA content assay kit, respectively. Glutamate transporter 1 (GLT-1) is an important glutamate transporter in the brain that transports extracellular glutamate to the intracellular compartment. γ-aminobutyric acid (GABA) is an important inhibitory neurotransmitter, and a dramatic increase in the concentration of extracellular glutamate in pathological conditions leads to neuronal hyperexcitability toxicity.

[1] = system: mouse model of pentylenetetrazole-induced epilepsy; test: Mouse model of pentylenetetrazole-induced epilepsy (Racine score, seizure rate, latency); type: in vivo, Kunming (KM) mice; details: for Incubation period (s), Clonic seizure / Incubation period (s), Tonic seizure: no seizure within 30 min recorded as 1800 s; for Seizure grade: pentylenetetrazole 75 mg/kg ip, Racine score within 30 min; for seizure rate, Clonic seizure / seizure rate, Tonic seizure: within 30 min
Protocol: Validation of the protective effect of CTMB in a mouse model of pentylenetetrazole-induced epilepsy. • (1) Experimental animals: specific pathogen free (SPF) adult male Kunming (KM) mice with a weight of 30-35 g. • (2) Animal grouping: the test mice were randomly divided into […], namely, saline group, low-dose CTMB group (a dose of 50 mg/kg, CTMB-L), middle-dose CTMB group (a dose of 75 mg/kg, CTMB-M), high-dose CTMB group (a dose of 100 mg/kg, CTMB-H), 10 mice in each group, and each group was administered by intraperitoneal injection. • (3) Evaluation methods and results:
After a period of drug administration, mice in each group were injected intraperitoneally with pentylenetetrazole of the epilepsy modeling drug with a dose of 75 mg/kg, and clonic seizures and tonic seizures were used as evaluation indexes. Racine scores as well as the seizure rate and latency period of clonic seizures (Racine scores of 1-3) and tonic seizures (Racine scores of 4-5) were observed and recorded for each group of mice within 30 min. Grading scale of Racine scores are as follows. Grade 0 represents normal nonepileptic activity; grade 1 represents wet-dog-like shaking or scratching; grade 2 represents head nodding or tail wagging; grade 3 represents stretching of one forelimb or clonus of one limb; grade 4 represents multiple limb clonus or tonicity; grade 5 represents falls and generalized tonic clonic seizures. If no seizure occurs in the mouse within 30 min, the latency period was recorded as 1800 s.

[2] = system: ischemic stroke induced by the filament technique in rats; test: Long-term ischemic stroke (MCAO), neurological deficit score (mNSS); type: in vivo
Protocol: The rats were randomly divided into a sham operation group (Sham group, given a blank emulsion with a volume equal to that of the high-dose CTMB group), a model group (Vehicle group, given a blank emulsion with a volume equal to that of the high-dose CTMB group), a low-dose CTMB group (CTMB-L group, 10 mg/kg), a high-dose CTMB group (CTMB-H group, 20 mg/kg), and an edaravone dexborneol injection concentrated solution group (EDB group, commercially available, 3 mg/kg). 10 rats were included in each group, which were administered by intraperitoneal injection. It should be noted that in the experiment, the mode of administration for rats was intraperitoneal injection, and a ratio of the effective dose of CTMB, the active ingredient in the emulsion injection, to the unit mass of the human body was within a range of 0.2 mg-4.0 mg/kg, which referred to the ratio of the effective dose of CTMB, the active ingredient in the emulsion injection, to the unit mass of the human body during intravenous infusion, which was extrapolated from the effective dose of the rats. Considering the different bioavailability, peak concentration, and peak time of the drug due to different species and different modes of administration, the effective dose of the active ingredient CTMB in the emulsion injection to the unit mass of human body was finally determined to be 0.2 mg-4.0 mg/kg through conversion.
The rats were fasted for 12 h before procedure, and the rats were anesthetized with 10% chloral hydrate (350 mg/kg, i.p.). The rats were fixed in the supine position, and the body temperature was maintained at about 37° C. For neck preparation, a median neck incision was made, the muscle and fascia were separated along the inner edge of the sternocleidomastoid muscle to expose the right side, the common carotid artery (CCA), external carotid artery (ECA), and internal carotid artery (ICA) were separated bluntly, and the lines were disposed of proximally in the CCA proximal end, ICA, and ECA for backup. The CCA proximal end and ECA were ligatured, and an arterial clip was used to temporarily close the ICA, then a small hole was poked at a position of CCA having about 4 mm from the bifurcation with a needle. The filament was inserted into the ICA through the CCA, the arterial clipped on ICA was loosened, and the filament was slowly advanced. When the mark on the filament reached the bifurcation and a slight resistance was felt, the thin wire at ICA was tightened, and saline was used to clean the wound and then suture was performed. The sham procedure was the same as the experimental group except that no filament was inserted. After anesthesia, the rats were raised normally.
Experimental materials, groups (n=10-15), modeling manner, and scoring criteria were the same as the acute phase of treatment. After 2 h of modeling by the filament technique, the drugs were immediately administered according to the grouped administration plan, and thereafter the drugs continued to be administered once a day for 14 days, and modified mNSS score was performed on days 1, 4, 7, and 14.

[3] = CTMB-H 20 mg/kg ip once a day for 14 days
[4] = CTMB-L 10 mg/kg ip once a day for 14 days

For `COc1cc(OC)c(OC)cc1C=C1CCC1` [CTMB, 1-(cyclobutylidenemethyl)-2,4,5-trimethoxybenzene], the “GABA content in brain” value (GABA) was “increases the content of GABA”, the “Incubation period (s), Clonic seizure” value ([1]; CTMB-H 100 mg/kg ip) was 1549.9 ± 537.1 s and the “Incubation period (s), Tonic seizure” value ([1]; CTMB-H 100 mg/kg ip) was 1800.0 ± 0.0 s. For the same compound, the Seizure grade ([1]; CTMB-H 100 mg/kg ip) was 0.2 ± 0.4, the “seizure rate, Clonic seizure” value ([1]; CTMB-H 100 mg/kg ip) was 20%*** and the “seizure rate, Tonic seizure” value ([1]; CTMB-H 100 mg/kg ip) was 0%***. The “Incubation period (s), Clonic seizure” value ([1]; CTMB-L 50 mg/kg ip) was 588.9 ± 657.6 s, the “Incubation period (s), Tonic seizure” value ([1]; CTMB-L 50 mg/kg ip) was 1000.8 ± 700.7 s and the Seizure grade ([1]; CTMB-L 50 mg/kg ip) was 4.1 ± 1.5. For the same compound, the “seizure rate, Clonic seizure” value ([1]; CTMB-L 50 mg/kg ip) was 90%, the “seizure rate, Tonic seizure” value ([1]; CTMB-L 50 mg/kg ip) was 70% and the “Incubation period (s), Tonic seizure” value ([1]; CTMB-M 75 mg/kg ip) was 1553.5 ± 400.4 s. The Seizure grade ([1]; CTMB-M 75 mg/kg ip) was 1.8 ± 1.3, the “seizure rate, Clonic seizure” value ([1]; CTMB-M 75 mg/kg ip) was 50%* and the “seizure rate, Tonic seizure” value ([1]; CTMB-M 75 mg/kg ip) was 30%**. The “toxic side effects associated with administration” value ([2]; 10 and 20 mg/kg ip once a day for 14 days) was “No toxic side effects”, the “mNSS score, Day 1” value [2, 3] was 5.69 ± 2.13^##, ** and the “mNSS score, Day 4” value [2, 3] was 3.75 ± 1.67^##, **. For the same compound, the “mNSS score, Day 7” value [2, 3] was 2.83 ± 1.17^##, *, the “mNSS score, Day 14” value [2, 3] was 2.45 ± 1.36^##, * and the “mNSS score, Day 1” value [2, 4] was 6.45 ± 2.37^##, *. For the same compound, the “mNSS score, Day 4” value [2, 4] was 3.65 ± 1.29^##, **, the “mNSS score, Day 7” value [2, 4] was 3.38 ± 0.83 and the “mNSS score, Day 14” value [2, 4] was 2.94 ± 1.56.
